Experimental data reported in patent publication US20220110910A1, “CANNABINOID-CONTAINING COMPLEX MIXTURES FOR THE TREATMENT OF CYTOKINE RELEASE SYNDROME WHILE PRESERVING KEY ANTI-VIRAL IMMUNE REACTIONS” (GBS Global BioPharma, Inc., priority 2020, published 2022).
Entries after “also recorded” stand apart in the source; their conditions may differ.

Columns and labels:
Format in all cases: cell-based, human
monocytes [1] = experiment: IL-1β ELISA in supernatants of LPS-stimulated PBMC
Method: (§1) In immunological activity experiments, PBMC suspensions were pre-treated with cannabinoid and/or terpene compounds for 30 minutes before treatment with designated stimuli, cultured in 96 well tissue culture plates, and incubated at 37° C. and 5.0% CO2. In pDC experiments, cell suspensions were stimulated with CpG-ODN Type A 2216 (15 μg/mL) (InvivoGen©, San Diego, Calif.) following treatment with cannabinoids. Golgi transport inhibitors Monensin (2 μM)/Brefeldin A (3.0 μg/mL) (Thermo Fisher Scientific, Waltham, Mass.) were added to culture 3 hours post-stimulation, and after 7 hours of stimulation cells were harvested for evaluation by flow cytometry for IFNα and TNFα. In monocyte experiments, cell suspensions were stimulated with 1000 ng/mL LPS (S. typhosa, Sigma Aldrich, St. Louis, Mo.) for 18 hours before harvesting supernatants for IL-1β, Golgi blocked for 6 hours before harvesting cells for assessment of IL-6, or cultured for 48 hours before harvesting cells for assessment of HLA-DR, CD80, and CD86. In phagocytosis experiments, cell suspensions were treated with 3.0 mg/mL of pHrodo Green BioParticles (Thermo Fisher). In T cell experiments, cells were plated on 96 well tissue culture plates pre-coated with 5.0 μg/mL anti-CD3 (clone UCHT1, Biolegend, San Diego, Calif.) and stimulated with 5.0 μg/mL anti-CD28 (clone 28.2, Biolegend) and supplemented with 5.0 ng/mL IL-2 (Roche Applied Science, Indianapolis, Ind.). CD25 and CD69 were assessed by flow cytometry 24 hours post-stimulation. In proliferation experiments, cell suspensions were incubated with CFSE Cell Division Tracker (Biolegend) according to manufacturer protocols, harvested 4 days post-stimulation and assessed by flow cytometry. Cell suspensions were further stimulated with 50 ng/mL phorbol 12-myristate 13-acetate (PMA) and 1000 ng/mL ionomycin (Io) at 4 days post-stimulation for 18 hours, Golgi blocked for 6 hours, and harvested for IL-4 and IFNγ assessment by flow cytometry.
To quantify IL-1β produced by monocytes, supernatants were collected from LPS stimulated cell suspensions after 18 hours and frozen at −80° C. ELISA MAX from Biolegend was used as per manufacturer protocol to quantify IL-1β to a sensitivity of […].

PBMC = experiment: Immune modulation survey of single compounds (all functional responses); details: 0.001-10 μM
Method: In immunological activity experiments, PBMC suspensions were pre-treated with cannabinoid and/or terpene compounds for 30 minutes before treatment with designated stimuli, cultured in 96 well tissue culture plates, and incubated at 37° C. and 5.0% CO2. In pDC experiments, cell suspensions were stimulated with CpG-ODN Type A 2216 (15 μg/mL) (InvivoGen©, San Diego, Calif.) following treatment with cannabinoids. Golgi transport inhibitors Monensin (2 μM)/Brefeldin A (3.0 μg/mL) (Thermo Fisher Scientific, Waltham, Mass.) were added to culture 3 hours post-stimulation, and after 7 hours of stimulation cells were harvested for evaluation by flow cytometry for IFNα and TNFα. […] CD25 and CD69 were assessed by flow cytometry 24 hours post-stimulation. In proliferation experiments, cell suspensions were incubated with CFSE Cell Division Tracker (Biolegend) according to manufacturer protocols, harvested 4 days post-stimulation and assessed by flow cytometry. […]
In brief, pDC, monocyte and T cell were identified using antibodies directed against unique epitopes for each cell type and analyzed by flow cytometry. […] For intracellular staining, fixed cells were permeabilized in BD Permwash and incubated with appropriate antibodies and 7% human AB serum. pDC were identified as CD303+and assessed for intracellular IFNα and TNFα. […]

CD4+ T cells [2] = experiment: Intracellular IFNγ and IL-4 after anti-CD3/anti-CD28 stimulation and PMA/ionomycin; details: vs vehicle
Method: as §1
(§2) In brief, pDC, monocyte and T cell were identified using antibodies directed against unique epitopes for each cell type and analyzed by flow cytometry. Cells were fixed in BD CytoFix and resuspended in FACS buffer for extracellular staining. […] For intracellular staining, fixed cells were permeabilized in BD Permwash and incubated with appropriate antibodies and 7% human AB serum. pDC were identified as CD303+and assessed for intracellular IFNα and TNFα. Monocytes were identified as CD14+ and assessed for extracellular HLA-DR, CD80, CD86, and intracellular TNFα and IL-6. […] T cells were identified as CD3+ and T cell subsets identified by CD4+ and CD8+ and assessed for extracellular CD25 and CD69 and intracellular IFNγ and IL-4. […]

CD8+ T cells [3] = experiment: Intracellular IFNγ after anti-CD3/anti-CD28 stimulation and PMA/ionomycin; details: vs vehicle
Method: as §1, §2

monocytes [4] = experiment: Co-stimulatory markers HLA-DR, CD80, CD86 on monocytes after LPS; details: 2 days, vs vehicle
Method: as §1
In brief, pDC, monocyte and T cell were identified using antibodies directed against unique epitopes for each cell type and analyzed by flow cytometry. Cells were fixed in BD CytoFix and resuspended in FACS buffer for extracellular staining. To determine the changes in cell viability in mixed PBMC, gates were first set on singlet events, then CD45+ cells, then populations identified by CD3+ (T cells) and CD14+ (monocytes), and then 7-AAD- for viability. Likewise, for pDC viability experiments, pDC were identified as CD303+ and viable by exclusion of Near IR L/D stain (Life Technologies, Carlsbad, Calif.). For intracellular staining, fixed cells were permeabilized in BD Permwash and incubated with appropriate antibodies and 7% human AB serum. pDC were identified as CD303+and assessed for intracellular IFNα and TNFα. Monocytes were identified as CD14+ and assessed for extracellular HLA-DR, CD80, CD86, and intracellular TNFα and IL-6. In phagocytosis experiments, PBMC were identified as CD45+ and monocytes were identified based on side scatter and then phagocytosing monocytes. T cells were identified as CD3+ and T cell subsets identified by CD4+ and CD8+ and assessed for extracellular CD25 and CD69 and intracellular IFNγ and IL-4. To analyze T cell proliferation, FlowJo 10.0 proliferation tool was used by setting the undivided peak of CFSE stained cells in each sample.

monocytes [5] = experiment: Phagocytosis of pHrodo Green BioParticles by monocytes; details: 10 μM; pHrodo Green BioParticles 3.0 mg/mL; vs vehicle
Method: as §1, with “In T cell experiments, cells were plated on 96 well tissue culture plates pre-coated with 5.0 μg/mL anti-CD3 (clone UCHT1, Biolegend, San Diego, Calif.) and stimulated with 5.0 μg/mL anti-CD28 (clone 28.2, Biolegend) and supplemented with 5.0 ng/mL IL-2 (Roche Applied Science, Indianapolis, Ind.).” left out, “Cell suspensions were further stimulated with 50 ng/mL phorbol 12-myristate 13-acetate (PMA) and 1000 ng/mL ionomycin (Io) at 4 days post-stimulation for 18 hours, Golgi blocked for 6 hours, and harvested for IL-4 and IFNγ assessment by flow cytometry.” left out
as §2, with “cytometry.” for “cytometry. Cells were fixed in BD CytoFix and resuspended in FACS buffer for extracellular staining.”

CD8+ T cells [6] = experiment: T cell activation markers CD25 and CD69, 24 hours post-stimulation; details: 10 μM
Method: as §1, with “In T cell experiments, cells were plated on 96 well tissue culture plates pre-coated with 5.0 μg/mL anti-CD3 (clone UCHT1, Biolegend, San Diego, Calif.) and stimulated with 5.0 μg/mL anti-CD28 (clone 28.2, Biolegend) and supplemented with 5.0 ng/mL IL-2 (Roche Applied Science, Indianapolis, Ind.).” left out, “Cell suspensions were further stimulated with 50 ng/mL phorbol 12-myristate 13-acetate (PMA) and 1000 ng/mL ionomycin (Io) at 4 days post-stimulation for 18 hours, Golgi blocked for 6 hours, and harvested for IL-4 and IFNγ assessment by flow cytometry.” left out
as §2, with “cytometry.” for “cytometry. Cells were fixed in BD CytoFix and resuspended in FACS buffer for extracellular staining.”

monocytes [7] = experiment: IL-6+ monocytes after LPS stimulation (intracellular staining); details: LPS 1000 ng/mL, vs vehicle
Method: as §1, with “In T cell experiments, cells were plated on 96 well tissue culture plates pre-coated with 5.0 μg/mL anti-CD3 (clone UCHT1, Biolegend, San Diego, Calif.) and stimulated with 5.0 μg/mL anti-CD28 (clone 28.2, Biolegend) and supplemented with 5.0 ng/mL IL-2 (Roche Applied Science, Indianapolis, Ind.).” left out, “Cell suspensions were further stimulated with 50 ng/mL phorbol 12-myristate 13-acetate (PMA) and 1000 ng/mL ionomycin (Io) at 4 days post-stimulation for 18 hours, Golgi blocked for 6 hours, and harvested for IL-4 and IFNγ assessment by flow cytometry.” left out
as §2, with “cytometry.” for “cytometry. Cells were fixed in BD CytoFix and resuspended in FACS buffer for extracellular staining.”

CD8+ T cells [8] = experiment: T cell proliferation (CFSE, FlowJo Proliferation tool); details: increasing concentration up to 10 μM
Method: as §1, §2

CD4+ T cells [9] = experiment: as above; details: 10 μM
Method: as §1, §2

monocytes [10] = experiment: TNFα+ monocytes after CpG-ODN stimulation (intracellular staining); details: CpG-ODN 15 μg/mL, 6 hours, vs vehicle
Method: FIGS. 9A-9B reveal the TNFα decreasing potential of cannabinol (CBN). […] PBMC were isolated from human peripheral blood and pre-treated with the indicated concentrations of cannabinol for 30 minutes, followed by stimulation with 15 μg/mL CpG-ODN for 6 hours (FIG. 9A). Cells were non-enzymatically released from culture plates and assessed for the percentage of TNFα+ monocytes (FIG. 9A) by intracellular staining. For FIG. 9B, PBMC were isolated from human peripheral blood and pre-treated with the indicated concentrations of cannabinol for 30 minutes, followed by treatment with 3.0 mg/mL of pHrodo Green BioParticles (FIG. 9B). In FIG. 9B, cells were treated with 3.0 mg/mL of pHrodo Green BioParticles and assessed for phagocytosis monocytes by flow cytometry within 2 hours. Data are normalized to each donor's vehicle control when appropriate and presented as mean±SEM. N=4-6 donors per treatment group. […] *p<0.05 when compared to VH (FIG. 9A), or **p<0.01 when compared to VH (FIG. 9B), by repeated measure one-way ANOVA with Dunnett's posttest.
as §2

Question: With `C=CC(C)(O)CCC=C(C)C` (stereo not shown) [Linalool] as the compound, how does the “IL-1β secretion in monocytes” value (monocytes [1]; 0.001 μM, LPS 1000 ng/mL, vs vehicle) read?
Answer: significantly increased

Question: And the IL-1β production (monocytes [1]; any other concentration (tested 0.001-10 μM, other than 0.001 μM))?
Answer: did not exhibit any effects

Question: What about the “any other immunological functional responses measured in the immune modulation survey” value (PBMC) of the same compound?
Answer: did not have any statistically significant effects

Question: What does the source list for `C/C(=C\CO)CCC[C@H](C)CCC[C@H](C)CCCC(C)C` [Phytol A, phytol]?
Answer: IFNγ in CD4+ T cells (CD4+ T cells [2]; 0.001 μM): significantly decreased; IFNγ in CD8+ T cells (CD8+ T cells [3]; 0.001 μM): not statistically significant

Question: Which IL-1β in monocytes (monocytes [1]; 0.01 μM, LPS 1000 ng/mL, vs vehicle) does the source give for `C=C(C)[C@@H]1CCC(C)=C[C@H]1c1c(O)cc(CCC)cc1O` [CBDV, cannabidivarin] here?
Answer: increased; also recorded: significantly increases

Question: What about the IL-1β in monocytes (monocytes [1]; 10 μM, LPS 1000 ng/mL, vs vehicle) of the same compound?
Answer: significantly decreased

Question: What about the “CD80+ co-stimulatory marker in monocytes” value (monocytes [4]; 10 μM) of the same compound?
Answer: significantly decreased

Question: What about the “CD86+ co-stimulatory marker in monocytes” value (monocytes [4]; 10 μM) of the same compound?
Answer: increased

Question: And the “HLA-DR co-stimulatory marker in monocytes” value (monocytes [4]; 10 μM)?
Answer: significantly decreased

Question: And the phagocytosis by monocytes (monocytes [5])?
Answer: significantly decreased

Question: And the “CD25+ activation marker in CD8+ T cells” value (CD8+ T cells [6])?
Answer: decreased

Question: What about the “CD69+ activation marker in CD8+ T cells” value (CD8+ T cells [6]) of the same compound?
Answer: decreased

Question: What about the “IFNγ in T cells (FIG. 8A: CD8+ T cells)” value (CD8+ T cells [3]; 0.01 μM) of the same compound?
Answer: significantly decreased

Question: What about the IL-6 in monocytes (monocytes [7]; 1-10 μM) of the same compound?
Answer: significantly decreased

Question: Which “T cell proliferation in CD8+ T cells” value (CD8+ T cells [8]) does the source give for `CCCCCc1cc(O)c2c(c1)OC(C)(CCC=C(C)C)C=C2` (stereo not shown) [CBC, cannabichromene] here?
Answer: not statistically significant

Question: What about the “T cell proliferation in CD4+ T cells” value (CD4+ T cells [9]) of the same compound?
Answer: significantly decreased

Question: What about the “HLA-DR co-stimulatory marker in monocytes” value (monocytes [4]; 10 μM) of the same compound?
Answer: increased

Question: And the “CD86+ co-stimulatory marker in monocytes” value (monocytes [4]; 1-10 μM)?
Answer: increased

Question: What about the IL-6 in monocytes (monocytes [7]; 10 μM) of the same compound?
Answer: significantly decreased

Question: What about the TNFα in monocytes (monocytes [10]; 0.1 μM) of the same compound?
Answer: significantly increased

Question: What does the source list for `CCCCCc1cc(O)c2c(c1)OC(C)(C)c1ccc(C)cc1-2` [CBN, cannabinol]?
Answer: IFNγ in CD4+ T cells (CD4+ T cells [2]; 0.001-0.1 μM): significantly decreased; phagocytosis by monocytes (monocytes [5]): decreasing; also recorded: significantly decreased; IFNγ in CD8+ T cells (CD8+ T cells [3]; 0.001-0.1 μM): significantly decreased; TNFα in monocytes (monocytes [10]; 10 μM): significantly decreased
